What was measured:
[1] = tested on: MATIN; test: Pre-emergence action at 320 g/ha against MATIN; format: in vivo, Tripleurospermum inodorum (Matricaria inodora); settings: visual scoring after about 3 weeks vs untreated controls
Method in brief: (§1)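 Visual scoring in percent against untreated controls, about 3 weeks after treatment, where 100% means dead plants and 0% means no difference. Compounds were applied as aqueous suspension or emulsion (WP or EC, plus 0.5% additive) onto soil covering freshly sown seeds, at 600 l/ha water.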

[2] = tested on: ECHGC; test: Pre-emergence action at 320 g/ha against ECHGC; format: in vivo, Echinochloa crus-galli; settings: visual scoring after about 3 weeks vs untreated controls
Method in brief: as §1

[3] = tested on: VIOTR; test: Pre-emergence action at 320 g/ha against VIOTR; format: in vivo, Viola tricolor; settings: dosage 320 g/ha
Method in brief: as §1

[4] = tested on: AMARE; test: Pre-emergence action at 320 g/ha against AMARE; format: in vivo, Amaranthus retroflexus; settings: visual scoring after about 3 weeks vs untreated controls
Method in brief: as §1

[5] = tested on: VERPE; test: Pre-emergence action at 320 g/ha against VERPE; format: in vivo, Veronica persica; settings: visual scoring after about 3 weeks vs untreated controls
Method in brief: as §1

[6] = tested on: POLCO; test: Pre-emergence action at 320 g/ha against POLCO; format: in vivo, Fallopia convolvulus (Polygonum convolvulus); settings: visual scoring after about 3 weeks vs untreated controls
Method in brief: as §1

[7] = tested on: ABUTH; test: Pre-emergence action at 320 g/ha against ABUTH; format: in vivo, Abutilon theophrasti; settings: greenhouse, scored visually after about 3 weeks vs untreated controls, 100% = plants have died, 0% = like control plants
Description: b) Seeds of monocotyledonous and dicotyledonous weed plants and crop plants are placed in plastic or organic planting pots and covered with soil. The compounds of the invention, formulated in the form of wettable powders (WP) or as emulsion concentrates (EC), are then applied onto the surface of the covering soil as aqueous suspension or emulsion with addition of 0.5% additive at a water application rate of 600 l/ha (converted). After the treatment, the pots are placed in a greenhouse and kept under good growth conditions for the trial plants. After about 3 weeks, the effect of the preparations is scored visually in comparison with untreated controls as percentages. For example, 100% activity=the plants have died, 0% activity=like control plants. Tables 13 to 26 below show the effects of selected compounds of the general formula (I) on various harmful plants and at an application rate corresponding to 320 g/ha, which were obtained by the experimental procedure mentioned above.

[8] = tested on: AVEFA; test: Pre-emergence action at 320 g/ha against AVEFA; format: in vivo; settings: visual scoring after about 3 weeks vs untreated controls
Method in brief: as §1

[9] = tested on: DIGSA; test: Pre-emergence action at 320 g/ha against DIGSA; format: in vivo, Digitaria sanguinalis; settings: visual scoring after about 3 weeks vs untreated controls
Method in brief: as §1

[10] = tested on: LOLRI; test: Pre-emergence action at 320 g/ha against LOLRI; format: in vivo, Lolium rigidum; settings: visual scoring after about 3 weeks vs untreated controls
Method in brief: as §1

[11] = tested on: PHBPU; test: Pre-emergence action at 320 g/ha against PHBPU; format: in vivo; settings: visual scoring after about 3 weeks vs untreated controls
Method in brief: as §1

[12] = tested on: SETVI; test: Pre-emergence action at 320 g/ha against SETVI; format: in vivo, Setaria viridis; settings: visual scoring after about 3 weeks vs untreated controls
Method in brief: as §1

[13] = tested on: ALOMY; test: Pre-emergence action at 320 g/ha against ALOMY; format: in vivo, Alopecurus myosuroides; settings: scored visually after about 3 weeks vs untreated controls (100% = plants have died)
Method in brief: as §1

CCOC(=O)CN(C)S(=O)(=O)NC(=O)COc1nn(-c2ccccc2F)c(-c2ccc(F)nc2)c1Br [Example X-031]
100%: Pre-emergence action against DIGSA in % [9] | Pre-emergence action against SETVI in % [12]
80%: Pre-emergence action against MATIN in % [1] | Pre-emergence action against ECHGC in % [2] | Pre-emergence action against POLCO in % [6] | Pre-emergence action at 320 g/ha against ABUTH in % [7] | Pre-emergence action against AVEFA in % [8] | Pre-emergence action against LOLRI in % [10]
90%: Pre-emergence action against VIOTR in % [3] | Pre-emergence action against AMARE in % [4] | Pre-emergence action against VERPE in % [5] | Pre-emergence action against PHBPU in % [11] | Pre-emergence action at 320 g/ha against ALOMY in % [13]

Reference: patent publication US12180187B2, “1-phenyl-5-azinylpyrazolyl-3-oxyalkyl acids and their use for controlling unwanted plant growth” (BAYER AKTIENGESELLSCHAFT, priority 2019, dated 2024)
